Values of other authors in patent US20110251243A1, “Method and Kit for Assessing a Patient's Genetic Information, Lifestyle and Environment Conditions, and Providing a Tailored Therapeutic Regime” (priority 2005, published 2011).
Like-named read-outs stand apart in the source and are kept apart here.

Legend:
[1] = tested on: patients
[2] = tested on: smokers; settings: women with at least one Taq1A allele compared to women with both common alleles
[3] = in the majority of people

CCc1c2c(nc3ccc(OC(=O)N4CCC(N5CCCCC5)CC4)cc13)-c1cc3c(c(=O)n1C2)COC(=O)[C@]3(O)CC [Irinotecan]
chance of neutropenia ([1]; heterozygotes (6/7)): 12.5%
likelihood of neutropenia ([1]; homozygous 7/7 genotype in UGT1A1*28): 50%
fatality ([1]; in vivo): up to 5%
severe diarrhoea and neutropenia, share of patients ([1]; in vivo): 20-35%
chance of neutropenia ([1]; wild type (homozygous 6/6 genotype)): roughly 0%

CC(NC(C)(C)C)C(=O)c1cccc(Cl)c1 (stereo not shown) [bupropion]
smoking status at 12 months [2]: more likely to be still smoking

CN1CCCC1c1cccnc1 (stereo not shown) [nicotine]
share metabolized to cotinine by C-oxidation [3]: 70% to 80
